Experimental data published in US9999616B2 (ZENITH EPIGENETICS LTD., priority 2013, dated 2018).

Tests used:
[1] = system: Human AML MV-4-11 cells; assay: Inhibition of cell proliferation in MV4-11 cells (CellTiter Aqueous One); assay type: cell-based; details: for IC50: MV4-11, 72 h; for Cell Proliferation activity: 72 h
How it was run: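 MV4-11 cells, 5×10^4 per well in IMDM with 10% FBS, were exposed to increasing compound concentrations or 0.1% DMSO for 72 h at 37 °C in triplicate. Viability was read by MTS (CellTiter Aqueous One) absorbance at 490 nm after 3-4 h. IC50 was derived from background-corrected signal relative to DMSO.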

[2] = biological target: Brd4 bromodomain 1 (BRD4(1)) (Homo sapiens, UniProt O60885); assay: Inhibition of tetra-acetylated histone H4 binding to Brd4 bromodomain 1, measured by FRET (HTRF); parameters: made in house; host or cells: E. coli BL21(DE3); details: 2 h at room temperature
How it was run: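 Inhibition was read as a drop in 665 nm relative to 620 nm HTRF signal after 2 h at room temperature, with IC50 from dose-response curves in duplicate wells. Reactions held 200 nM E. coli-expressed His-tagged bromodomain and 25-50 nM biotinylated tetra-acetylated histone H4 peptide. Buffer was 30 mM HEPES pH 7.4 with KF, CHAPS, BSA and 0.2% DMSO.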

[3] = system: c-myc in Human AML MV4-11 cells; assay: Inhibition of cMYC expression (mRNA, real-time PCR) in MV4-11 cells; assay type: cell-based; details: 3 h treatment, cMYC mRNA by real-time PCR
How it was run: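 MV4-11 cells in IMDM with 10% FBS were treated with increasing compound concentrations (DMSO 0.1%) for 3 h at 37 °C, in triplicate. Isolated mRNA was quantified by one-step TaqMan RT-qPCR, cMYC Ct normalized to cyclophilin, and fold expression given relative to DMSO control.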

[4] = system: hIL-6 mRNA; assay: Inhibition of hIL-6 mRNA transcription in LPS-stimulated U937 macrophages; assay type: cell-based, Human; details: Homo sapiens, U-937, PMA-differentiated U937 cells, 1 h pretreatment, LPS 3 h, read-out: IL-6 activity
How it was run: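 PMA-differentiated U937 macrophages (60 ng/mL PMA, 3 days) pretreated 1 h with compound in 0.1% DMSO, then stimulated with 1 ug/mL E. coli LPS for 3 h at 37° C. IL-6 mRNA quantified by one-step TaqMan qRT-PCR, normalized to cyclophilin; fold expression relative to control, triplicate wells.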

| Compound | IC50 [1] [nM] | IC50 [2] [nM] | IC50 [3] [nM] | IC50 [4] [nM] | Cell Proliferation activity [1] |
| --- | --- | --- | --- | --- | --- |
| Cc1nc2c(-c3cccc(C#N)c3C)cc(-c3c(C)noc3C)cc2[nH]1 [Example Compound 123, 3-(6-(3,5-dimethyl-isoxazol-4-yl)-2-methyl-1H-benzo[d]imidazol-4-yl)-2-methyl-benzonitrile] | 300 to 3000 | ≤ 300 | ≤ 300 | ≤ 300 | – |
| Cc1nc2c(-c3ccc4scnc4c3)cc(-c3c(C)noc3C)cc2[nH]1 [Example Compound 124, 4-(4-(benzo[d]thiazol-5-yl)-2-methyl-1H-benzo[d]imidazol-6-yl)-3,5-dimethyl isoxazole] | 300 to 3000 | ≤ 300 | 300 to 3000 | 300 to 3000 | – |
| Cc1noc(C)c1-c1cc(-c2c(C)nn(C)c2C)c2[nH]ncc2c1 [Example Compound 127, 3,5-dimethyl-4-(7-(1,3,5-trimethyl-1H-pyrazol-4-yl)-1H-indazol-5-yl)isoxazole] | ≤ 300 | ≤ 300 | ≤ 300 | ≤ 300 | – |
| Cc1noc(C)c1-c1cc(-c2cccnc2C(F)(F)F)c2[nH]ncc2c1 [Example Compound 128, 3,5-dimethyl-4-(7-(2-(trifluoromethyl)pyridin-3-yl)-1H-indazol-5-yl)isoxazole] | 300 to 3000 | 300 to 3000 | 300 to 3000 | ≤ 300 | – |
| Cc1noc(C)c1-c1cc(-c2cnccc2C(F)(F)F)c2[nH]ncc2c1 [Example Compound 129, 3,5-dimethyl-4-(7-(4-(trifluoromethyl)pyridin-3-yl)-1H-indazol-5-yl)isoxazole] | 300 to 3000 | 300 to 3000 | 300 to 3000 | 300 to 3000 | – |
| Cc1nc2c(-c3c(Cl)cncc3Cl)cc(-c3c(C)noc3C)cc2[nH]1 [Example Compound 130, 4-(4-(3,5-dichloro-pyridin-4-yl)-2-methyl-1H-benzo[d]imidazol-6-yl)-3,5-dimethyl isoxazole] | 300 to 3000 | ≤ 300 | 300 to 3000 | ≤ 300 | – |
| COc1nc(C)ccc1-c1cc(-c2c(C)noc2C)cc2[nH]c(C)nc12 [Example Compound 135, 4-(4-(2-methoxy-6-methyl-pyridin-3-yl)-2-methyl-1H-benzo[d]imidazol-6-yl)-3,5-dimethyl isoxazole] | 300 to 3000 | ≤ 300 | ≤ 300 | 300 to 3000 | – |
| Cc1nc2c(-c3ccc4ocnc4c3)cc(-c3c(C)noc3C)cc2[nH]1 [Example Compound 136, 5-(6-(3,5-dimethyl-isoxazol-4-yl)-2-methyl-1H-benzo[d]imidazol-4-yl)benzo[d] oxazole] | 300 to 3000 | ≤ 300 | ≤ 300 | 300 to 3000 | – |
| Cc1noc(C)c1-c1cc(NCCc2ccccc2)c2nc[nH]c2c1 [Example Compound 142, 6-(3,5-dimethyl-isoxazol-4-yl)-N-phenethyl-1H-benzo[d] imidazol-4-amine] | 300 to 3000 | 300 to 3000 | 300 to 3000 | 300 to 3000 | – |
| Cc1nc2c(Nc3cccnc3C)cc(-c3c(C)noc3C)cc2[nH]1 [Example Compound 143, 6-(3,5-dimethylisoxazol-4-yl)-2-methyl-N-(2-methylpyridin-3-yl)-1H-benzo[d]imidazol-4-amine] | 300 to 3000 | ≤ 300 | 300 to 3000 | 300 to 3000 | – |
| Cc1nc2c(Oc3ccccc3)cc(-c3c(C)noc3C)cc2[nH]1 [Example Compound 148, 3,5-dimethyl-4-(2-methyl-4-phenoxy-1H-benzo[d]imidazol-6-yl)isoxazole] | 300 to 3000 | ≤ 300 | ≤ 300 | ≤ 300 | – |
| Cc1noc(C)c1-c1cc(-c2c(C)noc2C)c2nc(NCCO)[nH]c2c1 [Example Compound 150, 2-((4,6-bis(3,5-dimethyl-isoxazol-4-yl)-1H-benzo[d]imidazol-2-yl)amino) ethanol] | 300 to 3000 | ≤ 300 | 300 to 3000 | 300 to 3000 | – |
| Cc1noc(C)c1-c1cc(N(CCc2ccccc2)CCc2ccccc2)c2nc[nH]c2c1 [Example Compound 151, 6-(3,5-dimethyl-isoxazol-4-yl)-N,N-diphenethyl-1H-benzo[d] imidazol-4-amine] | 300 to 3000 | 300 to 3000 | 300 to 3000 | 300 to 3000 | – |
| COc1cccc(-c2cc(-c3c(C)noc3C)cc3[nH]c(C)nc23)c1F [Example Compound 152, 4-(4-(2-fluoro-3-methoxy-phenyl)-2-methyl-1H-benzo[d]imidazol-6-yl)-3,5-dimethyl isoxazole] | 300 to 3000 | ≤ 300 | 300 to 3000 | ≤ 300 | – |
| Cc1nc2c(-c3ccc4nccnc4c3)cc(-c3c(C)noc3C)cc2[nH]1 [Example Compound 153, 3,5-dimethyl-4-(2-methyl-4-(quinoxalin-6-yl)-1H-benzo[d]imidazol-6-yl)isoxazole] | 300 to 3000 | ≤ 300 | 300 to 3000 | 300 to 3000 | – |
| Cc1nc2c(Oc3cccnc3C)cc(-c3c(C)noc3C)cc2[nH]1 [Example Compound 155, 3,5-dimethyl-4-(2-methyl-4-((2-methylpyridin-3-yl)oxy)-1H-benzo[d]imidazol-6-yl)isoxazole] | 300 to 3000 | ≤ 300 | 300 to 3000 | 300 to 3000 | – |
| Cc1nc2c(-c3cc(C(F)(F)F)ccc3F)cc(-c3c(C)noc3C)cc2[nH]1 [Example Compound 157, 4-(4-(2-fluoro-5-(trifluoro-methyl)phenyl)-2-methyl-1H-benzo[d]imidazol-6-yl)-3,5-dimethyl isoxazole] | 300 to 3000 | ≤ 300 | 300 to 3000 | 300 to 3000 | – |
| Cc1nc2c(CCc3ccccc3)cc(-c3c(C)noc3C)cc2[nH]1 [Example Compound 161, 3,5-dimethyl-4-(2-methyl-4-phenethyl-1H-benzo[d]imidazol-6-yl)isoxazole] | 3000 to 30000 | ≤ 300 | 300 to 3000 | 300 to 3000 | – |

The next lines start with results.

| IC50 [1] [nM] | IC50 [2] [nM] | IC50 [3] [nM] | IC50 [4] [nM] | Compound | Cell Proliferation activity [1] |
| --- | --- | --- | --- | --- | --- |
| 300 to 3000 | 300 to 3000 | 300 to 3000 | 300 to 3000 | COc1ncc(F)cc1-c1cc(-c2c(C)noc2C)cc2[nH]c(C)nc12 [Example Compound 131, 4-(4-(5-fluoro-2-methoxy-pyridin-3-yl)-2-methyl-1H-benzo[d]imidazol-6-yl)-3,5-dimethyl isoxazole] | – |
| 300 to 3000 | 300 to 3000 | 300 to 3000 | 300 to 3000 | Cc1nc2c(-c3ccc(F)c(F)c3C)cc(-c3c(C)noc3C)cc2[nH]1 [Example Compound 132, 4-(4-(3,4-difluoro-2-methyl-phenyl)-2-methyl-1H-benzo[d]imidazol-6-yl)-3,5-dimethyl isoxazole] | – |
| 300 to 3000 | ≤ 300 | 300 to 3000 | ≤ 300 | Cc1nc2c(-c3cccc4ccccc34)cc(-c3c(C)noc3C)cc2[nH]1 [Example Compound 138, 3,5-dimethyl-4-(2-methyl-4-(naphthalen-1-yl)-1H-benzo[d]imidazol-6-yl)isoxazole] | – |
| – | 300 to 3000 | 3000 to 30000 | 300 to 3000 | Cc1nc2c(-c3csnc3C)cc(-c3csnc3C)cc2[nH]1 [Example Compound 139, 4,4′-(2-methyl-1H-benzo[d]imidazole-4,6-diyl)bis(3-methylisothiazole)] | Not active |
| ≤ 300 | ≤ 300 | ≤ 300 | ≤ 300 | Cc1nc2c(-c3ccccc3Cl)cc(-c3c(C)noc3C)cc2[nH]1 [Example Compound 144, 4-(4-(2-chloro-phenyl)-2-methyl-1H-benzo[d]imidazol-6-yl)-3,5-dimethyl isoxazole] | – |
| ≤ 300 | 300 to 3000 | 300 to 3000 | 300 to 3000 | Cc1nc2c(-c3cc4ccccc4s3)cc(-c3c(C)noc3C)cc2[nH]1 [Example Compound 145, 4-(4-(benzo[b]thiophen-2-yl)-2-methyl-1H-benzo[d]imidazol-6-yl)-3,5-dimethyl isoxazole] | – |
| – | 300 to 3000 | 300 to 3000 | 300 to 3000 | Cc1nc2c(N3CCC3=O)cc(-c3c(C)noc3C)cc2[nH]1 [Example Compound 147, 1-(6-(3,5-dimethyl-isoxazol-4-yl)-2-methyl-1H-benzo[d]imidazol-4-yl)azetidin-2-one] | Not active |
| 3000 to 30000 | ≤ 300 | 300 to 3000 | 3000 to 30000 | Cc1nc2c(-c3ccc4nncn4c3)cc(-c3c(C)noc3C)cc2[nH]1 [Example Compound 156, 4-(4-([1,2,4]triazolo [4,3-a]pyridin-6-yl)-2-methyl-1H-benzo[d]imidazol-6-yl)-3,5-dimethyl isoxazole] | – |
